The results in this text go back to patent US9445594B2, “Molecules having certain pesticidal utilities, intermediates, compositions, and processes, related thereto” (priority 2014, dated 2016).

Common to all, as to assay type: in vivo
In data set [1] the test system is Beet Armyworm (Spodoptera exigua, LAPHEG) ("BAW"). Put plainly: Bioassays on BAW, 128-well diet tray assay. The note with it: 168 h, second instar larvae, 50 μg/cm^2 on artificial diet, 25° C., five to seven days, average of eight wells, read-out: BAW % Control (or Mortality) rating. On the procedure: (§1) Certain molecules disclosed in this document were tested against BAW, CEW, and CL using procedures described in the following examples. In the reporting of the results, the “BAW, CEW, & CL Rating Table” was used (See Table Section).
Bioassays on BAW were conducted using a 128-well diet tray assay. one to five second instar BAW larvae were placed in each well (3 mL) of the diet tray that had been previously filled with 1 mL of artificial diet to which 50 μg/cm^2 of the test compound (dissolved in 50 μL of 90:10 acetone-water mixture) had been applied (to each of eight wells) and then allowed to dry. Trays were covered with a clear self-adhesive cover and held at 25° C., 14:10 light-dark for five to seven days. Percent mortality was recorded for the larvae in each well; activity in the eight wells was then averaged. The results are indicated in the table entitled “Table ABC: Biological Results” (See Table Section).

Data set [2] has as its system Cabbage Looper (Trichoplusia ni, TRIPNI) ("CL"). The data set is described as follows: Bioassays on CL, 128-well diet tray assay. As to conditions: 168 h, second instar larvae, 50 μg/cm^2 on artificial diet, 25° C., five to seven days, average of eight wells, read-out: CL % Control (or Mortality) rating. The protocol: as §1
Bioassays on CL were conducted using a 128-well diet tray assay. one to five second instar CL larvae were placed in each well (3 mL) of the diet tray that had been previously filled with 1 mL of artificial diet to which 50 μg/cm^2 of the test compound (dissolved in 50 μL of 90:10 acetone-water mixture) had been applied (to each of eight wells) and then allowed to dry. Trays were covered with a clear self-adhesive cover and held at 25° C., 14:10 light-dark for five to seven days. Percent mortality was recorded for the larvae in each well; activity in the eight wells was then averaged. The results are indicated in the table entitled “Table ABC: Biological Results” (See Table Section).

For data set [3], the system named is Yellow Fever Mosquito (Aedes aegypti, AEDSAE) ("YFM"). Put plainly: Bioassays on YFM, 96-well plate larval assay. As to conditions: about 1 day-old larvae, from 4000 ppm DMSO master plate diluted, room temperature, scored after 3 days. On the procedure: Certain molecules disclosed in this document were tested against YFM using procedures described in the following paragraph. In the reporting of the results, the “YFM Rating Table” was used (See Table Section).
Master plates containing 400 μg of a molecule dissolved in 100 μL of dimethyl sulfoxide (DMSO) (equivalent to a 4000 ppm solution) are used. A master plate of assembled molecules contains 15 μL per well. To this plate, 135 μL of a 90:10 water:acetone mixture is added to each well. A robot (Biomek® NXP Laboratory Automation Workstation) is programmed to dispense 15 μL aspirations from the master plate into an empty 96-well shallow plate (“daughter” plate). There are 6 reps (“daughter” plates) created per master. The created daughter plates are then immediately infested with YFM larvae.
The day before plates are to be treated, mosquito eggs are placed in Millipore water containing liver powder to begin hatching (4 g. into 400 mL). After the daughter plates are created using the robot, they are infested with 220 μL of the liver powder/larval mosquito mixture (about 1 day-old larvae). After plates are infested with mosquito larvae, a non-evaporative lid is used to cover the plate to reduce drying. Plates are held at room temperature for 3 days prior to grading. After 3 days, each well is observed and scored based on mortality.

What is called mortality is the percentage killed. Regarding `O=C(Nc1ccc(-c2ncn(-c3ccc(OC(F)(F)C(F)(F)F)cc3)n2)cc1)Nc1ccccc1OC(F)(F)F` [F1, 1-(4-(1-(4-(Perfluoroethoxy)phenyl)-1H-1,2,4-triazol-3-yl)phenyl)-3-(2-(trifluoromethoxy)phenyl)urea], the figures for the mortality at 50 µg/cm2 in data set [1] and in data set [2] were 0% and 50 to 100%, respectively. In addition, in data set [3], the “YFM % Control (or Mortality) rating” value is “D (No activity noticed in this bioassay)”.

Regarding `O=C(Nc1ccc(-c2ncn(-c3ccc(OC(F)(F)F)cc3)n2)cc1)Nc1ccccc1-c1cc(F)c(F)c(F)c1` [F9, 1-(3′,4′,5′-Trifluoro-[1,1′-biphenyl]-2-yl)-3-(4-(1-(4-(trifluoromethoxy)phenyl)-1H-1,2,4-triazol-3-yl)phenyl)urea], the mortality at 50 µg/cm2 in data set [1] and in data set [2] was 50 to 100% each time. Moreover, in data set [3], the “YFM % Control (or Mortality) rating” value was “D (No activity noticed in this bioassay)”.

Take `O=C(Nc1ccc(-c2ncn(-c3ccc(OC(F)(F)F)cc3)n2)cc1)Nc1ccccc1-n1cccc1` [F13, 1-(2-(1H-pyrrol-1-yl)phenyl)-3-(4-(1-(4-(trifluoromethoxy)phenyl)-1H-1,2,4-triazol-3-yl)phenyl)urea]: the mortality at 50 µg/cm2 in data set [1] and in data set [2] was 50 to 100% in each case.

As for `O=C(Nc1ccc(-c2ncn(-c3ccc(OC(F)(F)C(F)(F)F)cc3)n2)cc1)Nc1ccccc1C1CC1` [F15, 1-(2-Cyclopropylphenyl)-3-(4-(1-(4-(perfluoroethoxy)phenyl)-1H-1,2,4-triazol-3-yl)phenyl)urea], the mortality at 50 µg/cm2 in data set [1] and in data set [2] was 50 to 100% each time. For the same compound, the “YFM % Control (or Mortality) rating” value in data set [3] is reported as “B (More than 0 - Less than 80)”.

On to `Cc1ccccc1N(C(=O)Nc1ccc(-c2ncn(-c3ccc(OC(F)(F)F)cc3)n2)cc1)C(N)=S` [F19, N-(2-methylphenyl)-N-(4-{1-[4-(trifluoromethoxy)phenyl]-1H-1,2,4-triazol-3-yl}phenyl)dicarbonimidothioic diamide], for which the mortality at 50 µg/cm2 in data set [1] and in data set [2] was 50 to 100% each time.

Regarding `Cc1ccccc1-c1cccnc1NC(=O)Nc1ccc(-c2ncn(-c3ccc(OC(F)(F)F)cc3)n2)cc1` [F24, 1-(3-(o-Tolyl)pyridin-2-yl)-3-(4-(1-(4-(trifluoromethoxy)phenyl)-1H-1,2,4-triazol-3-yl)phenyl)urea], the mortality at 50 µg/cm2 in data set [1] and in data set [2] was 50 to 100% throughout.

As to `O=C(Nc1ccc(-c2ncn(-c3ccc(OC(F)(F)F)cc3)n2)cc1)Nc1ccccc1OC(F)(F)F` [F26, 1-(2-(Trifluoromethoxy)phenyl)-3-(4-(1-(4-(trifluoromethoxy)phenyl)-1H-1,2,4-triazol-3-yl)phenyl)urea], the mortality at 50 µg/cm2 in data set [1] and in data set [2] was 50 to 100% each time. For the same compound, in data set [3], the “YFM % Control (or Mortality) rating” value was “D (No activity noticed in this bioassay)”.

`O=C(Nc1ccc(-c2ncn(-c3ccc(OC(F)(F)F)cc3)n2)cc1)Nc1ncccc1-c1ccccc1` [F32, 1-(3-Phenylpyridin-2-yl)-3-(4-(1-(4-(trifluoromethoxy)phenyl)-1H-1,2,4-triazol-3-yl)phenyl)urea]: the “YFM % Control (or Mortality) rating” value in data set [3] is listed as “B (More than 0 - Less than 80)”.

With `CC(C)c1ccccc1NC(=O)Nc1ccc(-c2ncn(-c3ccc(OC(F)(F)F)cc3)n2)cc1` [F33, 1-(2-Isopropylphenyl)-3-(4-(1-(4-(trifluoromethoxy)phenyl)-1H-1,2,4-triazol-3-yl)phenyl)urea], the mortality at 50 µg/cm2 in data set [1] and in data set [2] was 50 to 100% in each case. In data set [3], the “YFM % Control (or Mortality) rating” value is on record as “B (More than 0 - Less than 80)”.

`CCc1ccccc1N(C(=O)Nc1ccc(-c2ncn(-c3ccc(OC(F)(F)F)cc3)n2)cc1)C(N)=S` [F52, N-(2-Ethylphenyl)-N-(4-{1-[4-(trifluoromethoxy)phenyl]-1H-1,2,4-triazol-3-yl}phenyl)dicarbonimidothioic diamide]: the mortality at 50 µg/cm2 in data set [1] and in data set [2] was 50 to 100% in each case.

Take `O=C(NCc1ccc(-c2ncn(-c3ccc(OC(F)(F)F)cc3)n2)cc1)Nc1ccccc1-c1ccccc1` [F70, 1-([1,1′-biphenyl]-2-yl)-3-(4-(1-(4-(trifluoromethoxy)phenyl)-1H-1,2,4-triazol-3-yl)benzyl)urea]: the mortality at 50 µg/cm2 in data set [1] and in data set [2] was 50 to 100% each time.

As for `O=C(NCCCc1ccc(-c2ncn(-c3ccc(OC(F)(F)F)cc3)n2)cc1)Nc1ccc(Cl)cc1` [F79, 1-(4-Chlorophenyl)-3-(3-(4-(1-(4-(trifluoromethoxy)phenyl)-1H-1,2,4-triazol-3-yl)phenyl)propyl)urea], the mortality at 50 µg/cm2 in data set [2] fell in the range of 50 to 100%. Further, in data set [3], the “YFM % Control (or Mortality) rating” value is “D (No activity noticed in this bioassay)”.

In the case of `COc1ccc(NC(=O)NCCCc2ccc(-c3ncn(-c4ccc(OC(F)(F)F)cc4)n3)cc2)cc1` [F82, 1-(4-Methoxyphenyl)-3-(3-(4-(1-(4-(trifluoromethoxy)phenyl)-1H-1,2,4-triazol-3-yl)phenyl)propyl)urea], the mortality at 50 µg/cm2 in data set [2] worked out at 0%. The “YFM % Control (or Mortality) rating” value in data set [3] is on record as “D (No activity noticed in this bioassay)”.

As to `Cc1ccc(NC(=O)NCCCc2ccc(-c3ncn(-c4ccc(OC(F)(F)F)cc4)n3)cc2)cc1` [F83, 1-(p-Tolyl)-3-(3-(4-(1-(4-(trifluoromethoxy)phenyl)-1H-1,2,4-triazol-3-yl)phenyl)propyl)urea], the mortality at 50 µg/cm2 in data set [2] was 0%. In addition, the “YFM % Control (or Mortality) rating” value in data set [3] is listed as “D (No activity noticed in this bioassay)”.

For `Cc1cccc(NC(=O)NCCCc2ccc(-c3ncn(-c4ccc(OC(F)(F)F)cc4)n3)cc2)c1` [F87, 1-(m-Tolyl)-3-(3-(4-(1-(4-(trifluoromethoxy)phenyl)-1H-1,2,4-triazol-3-yl)phenyl)propyl)urea], the mortality at 50 µg/cm2 in data set [2] worked out at 0%. In addition, the “YFM % Control (or Mortality) rating” value in data set [3] was “D (No activity noticed in this bioassay)”.

In the case of `Cc1ccccc1NC(=O)NCCCCc1ccc(-c2ncn(-c3ccc(OC(F)(F)F)cc3)n2)cc1` [F89, 1-(o-Tolyl)-3-(4-(4-(1-(4-(trifluoromethoxy)phenyl)-1H-1,2,4-triazol-3-yl)phenyl)butyl)urea], the mortality at 50 µg/cm2 in data set [1] amounted to 0%. In addition, the “YFM % Control (or Mortality) rating” value in data set [3] was “D (No activity noticed in this bioassay)”.

Turning to `Cc1cccc(NC(=O)NCCCCc2ccc(-c3ncn(-c4ccc(OC(F)(F)F)cc4)n3)cc2)c1` [F91, 1-(m-Tolyl)-3-(4-(4-(1-(4-(trifluoromethoxy)phenyl)-1H-1,2,4-triazol-3-yl)phenyl)butyl)urea], the mortality at 50 µg/cm2 in data set [2] came out at 0%. For the same compound, the “YFM % Control (or Mortality) rating” value in data set [3] is “D (No activity noticed in this bioassay)”.

In the case of `O=C(NCCCCc1ccc(-c2ncn(-c3ccc(OC(F)(F)F)cc3)n2)cc1)Nc1ccccc1Cl` [F92, 1-(2-Chlorophenyl)-3-(4-(4-(1-(4-(trifluoromethoxy)phenyl)-1H-1,2,4-triazol-3-yl)phenyl)butyl)urea], in data set [2], the mortality at 50 µg/cm2 worked out at 0%. Also, in data set [3], the “YFM % Control (or Mortality) rating” value is “D (No activity noticed in this bioassay)”.

On to `COc1cccc(NC(=O)NCCCCc2ccc(-c3ncn(-c4ccc(OC(F)(F)F)cc4)n3)cc2)c1` [F96, 1-(3-Methoxyphenyl)-3-(4-(4-(1-(4-(trifluoromethoxy)phenyl)-1H-1,2,4-triazol-3-yl)phenyl)butyl)urea], for which the mortality at 50 µg/cm2 in data set [1] amounted to 0%. Further, in data set [3], the “YFM % Control (or Mortality) rating” value is given as “D (No activity noticed in this bioassay)”.

Regarding `CCc1ccccc1NC(=O)NCc1ccc(-c2ncn(-c3ccc(OC(F)(F)F)cc3)n2)cc1` [F101, 1-(2-Ethylphenyl)-3-(4-(1-(4-(trifluoromethoxy)phenyl)-1H-1,2,4-triazol-3-yl)benzyl)urea], the mortality at 50 µg/cm2 in data set [1] was 0%. Further, the “YFM % Control (or Mortality) rating” value in data set [3] is “D (No activity noticed in this bioassay)”.
